According to ChEMBL document CHEMBL2346659, “Anti-adipogenic diarylheptanoids from Alnus hirsuta f. sibirica on 3T3-L1 cells” (Bioorg Med Chem Lett, 2013):
Active and inactive are the calls of the source. The rule behind the calls is not given here.

Key:
3T3-L1 [1] = experiment: Inhibition of differentiation of mouse 3T3L1 cells assessed as lipid accumulation at 100 uM after 8 days by using Oil Red O staining by spectrophotometry relative to control in presence of troglitazone; type: functional; parameters: scale not given: the % may be the effect or the level left
3T3-L1 [2] = experiment: Antiadipogenic activity in mouse 3T3L1 cells assessed as inhibition of C/EBPalpha expression at 10 to 50 uM after 8 days by Western blot analysis; type: functional, cell-based
3T3-L1 [3] = experiment: Antiadipogenic activity in mouse 3T3L1 cells assessed as inhibition of PPAR-gamma expression at 10 to 50 uM after 8 days by Western blot analysis; type: functional, cell-based
3T3-L1 [4] = experiment: Inhibition of differentiation of mouse 3T3L1 cells assessed as reduction of lipid accumulation after 8 days by using Oil Red O staining by spectrophotometry relative to control; type: functional, cell-based
3T3-L1 [5] = experiment: Inhibition of differentiation of mouse 3T3L1 cells assessed as lipid accumulation at 100 uM after 8 days by using Oil Red O staining by spectrophotometry relative to control; type: functional
3T3-L1 [6] = experiment: Inhibition of differentiation of mouse 3T3L1 cells assessed as lipid accumulation at 50 uM after 8 days by using Oil Red O staining by spectrophotometry relative to control; type: functional
3T3-L1 [7] = experiment: Inhibition of differentiation of mouse 3T3L1 cells assessed as lipid accumulation at 10 uM after 8 days by using Oil Red O staining by spectrophotometry relative to control; type: functional
3T3-L1 [8] = experiment: Induction of differentiation of mouse 3T3L1 cells assessed as lipid accumulation at 10 uM after 8 days by using Oil Red O staining by spectrophotometry relative to control; type: cell-based; conditions: 3t3-l1, 192 h
3T3-L1 [9] = experiment: Cytotoxicity against mouse 3T3L1 cells at 100 uM; type: cell-based; conditions: 3t3-l1, 100 µM

SMILES	Activity (3T3-L1 [1]) [%]	inhibition (3T3-L1 [2])	inhibition (3T3-L1 [3])	inhibition (3T3-L1 [4])	Lipid accumulation (% of control) (3T3-L1 [5]) [%]	Lipid accumulation (% of control) (3T3-L1 [6]) [%]	Lipid accumulation relative to control (3T3-L1 [7]) [%]	Activity (3T3-L1 [8]) [%]	Activity (3T3-L1 [9])
O=C(CCc1ccc(O)cc1)C[C@H](CCc1ccc(O)cc1)O[C@@H]1OC[C@@H](O)[C@H](O)[C@H]1O	20.8	Active	Active	Dose-dependent effect	14.4	28.9	81.7	–	–
O=C(/C=C/c1ccc(O)c(O)c1)C[C@@H](O)CCc1ccc(O)cc1	–	–	–	Dose-dependent effect	58.8	81.8	92.6	–	–
O=C(O[C@@H]1Cc2c(O)cc(O)cc2O[C@@H]1c1cc(O)c(O)c(O)c1)c1cc(O)c(O)c(O)c1 [EPIGALOCATECHIN GALLATE]	–	–	–	–	54.5	81.9	94.9	–	–
Cc1c(C)c2c(c(C)c1O)CCC(C)(COc1ccc(CC3SC(=O)NC3=O)cc1)O2 (stereo not drawn) [TROGLITAZONE]	–	–	–	–	–	–	–	107.1	–
OC[C@H]1O[C@@H](O[C@H](CCCCc2ccc(O)cc2)CCc2ccc(O)cc2)[C@H](O)[C@@H](O)[C@@H]1O	–	–	–	–	98.1	103.1	76	–	–
O=C(/C=C/CCc1ccc(O)c(O)c1)/C=C/c1ccc(O)c(O)c1	–	–	–	Dose-dependent effect	36.5	66.5	86.5	–	–
O=C(CCc1ccc(O)cc1)C[C@@H](O)CCc1ccc(O)c(O)c1	–	–	–	Dose-dependent effect	57.6	70.5	77.3	–	–
Oc1ccc(CC[C@@H](O)C[C@H](O)CCc2ccc(O)cc2)cc1 [(+)-HANNOKINOL]	–	–	–	–	–	61.2	90.2	–	Toxic
O=C(/C=C/CCc1ccc(O)c(O)c1)CCc1ccc(O)c(O)c1 [DEHYDROHIRSUTANONOL]	–	–	–	Dose-dependent effect	38.6	45.7	86.1	–	–
O=C(/C=C/C=C/c1ccc(O)c(O)c1)CCc1ccc(O)c(O)c1	–	–	–	–	103	108.9	104.4	–	–
Oc1ccc(CCCC[C@@H](O)CCc2ccc(O)c(O)c2)cc1O	–	–	–	–	90	86.4	84.6	–	–
O=C(CCc1ccc(O)c(O)c1)C[C@@H](O)CCc1ccc(O)c(O)c1 [HIRSUTANONOL]	–	–	–	Dose-dependent effect	59.9	72.6	83.9	–	–
